In US20220389058A1, “PEPTIDES AND COMPOSITIONS FOR USE IN COSMETICS AND MEDICINE” (LIPOTRUE, S.L., priority 2019, published 2022):

Experiments:
[1] = Protein glycation (AGE formation), fluorimetric (Example 14); assay type: biochemical; conditions: 0.01, 0.05, 0.1 and 0.5 mg/mL; 72 hours at 37° C.; vs negative control
Experimental: Briefly, 0.01, 0.05, 0.1 and 0.5 mg/mL of peptide Ac-SEQ ID NO: 1-NH2 were mixed together with a glycation agent and its corresponding substrate. Samples were incubated for 72 hours at 37° C. A fluorimetric method was used to evaluate the % of protein glycation compared to the negative control (sample only with sugar substrate).

[2] = test system: recombinant mushroom tyrosinase; assay: Tyrosinase activity, L-DOPA/dopachrome absorbance (Example 11); assay type: biochemical; conditions: 0.05-2.5 mg/mL (Ac-SEQ ID NO: 4-NH2: 0.005-2.5 mg/mL); 30 minutes preincubation, L-DOPA, 2 hours, absorbance 450 nm; vs non-treated control (100%)
Experimental: Briefly, different concentrations of Ac-SEQ ID NO: 1-NH2 (0.05, 0.25, 0.5 and 2.5 mg/mL), Ac-SEQ ID NO: 2-NH2 (0.05, 0.25, 0.5 and 2.5 mg/mL), Ac-SEQ ID NO: 3-NH2 (0.05, 0.25, 0.5 and 2.5 mg/mL) and Ac-SEQ ID NO: 4-NH2 (0.005, 0.025, 0.05, 0.25, 0.5 and 2.5 mg/mL) and the positive control kojic acid (400 and 800 μM) were incubated with recombinant mushroom tyrosinase for 30 minutes before the addition of L-DOPA (L-3,4 dihidroxiphenilalanine, 2.5 mg/mL in PBS). After 2 hours' reaction at room temperature, the absorbance at 450 nm of each well was determined using the microplate reader Multiskan FC (Thermo Fisher Scientific, Mass., USA), which is directly proportional to the amount of dopachrome in the reaction mixture.

human skin explants = assay: Ex vivo fibrillin-1 immunostaining after methylglyoxal (Example 15); conditions: cream containing 1% Ac-SEQ ID NO: 1-NH2, topical 2 mg/cm^2; methylglyoxal 500 μM; day 9
Experimental: Briefly, human skin explants from a person were kept in survival in BEM culture medium at 37° C. in a humid, 5% CO2 atmosphere. A placebo cream and a cream containing 1% Ac-SEQ ID NO: 1-NH2, prepared according to Example 6, were applied topically on the basis of 2 μL per explant (2mg/cm^2) and spread using a small spatula on day 0 (DO), day 1, day 4, day 6 and day 8. […] To induce glycation, a solution of Methylglyoxal (MG) was incorporated in the BEM culture medium at a final concentration of 500 μM on day 4, day 6 and day 8, on the concerned batches “MG” (all samples except control untreated samples). Explants were collected at each timepoint and cut in two parts. Half was fixed in buffered formalin solution and half was frozen at −80° C.
The nuclei were counterstained with propidium iodide.

IL33 = IL33 expression modulation by RT-qPCR in HDFa cells (Example 7); assay type: cell-based, Human; conditions: 0.01 mg/mL, 24 hours
Experimental: (§1) A stock solution of the peptide was prepared in water at 1 mg/mL. Working solution was freshly prepared at the specified concentration from stock solution in the corresponding supplemented medium.
RNA (ribonucleic acid) extraction and RT-qPCR (reverse transcription quantitative polymerase chain reaction) were performed. Briefly, HDFa and HEKa cells were seeded in duplicate (n=2) in 6-well plates at a density of 4×10^5 cells/well and maintained at standard culture conditions (106 Medium supplemented with 1% (v/v) LSGS for HDFa cells; Medium Epilife supplemented with 1% (v/v) EDGS and 1% (v/v) penicillin/streptomycin for HEKa cells; 37° C., 95% room humidity, 5% CO2) for 24 hours. […]
Cells were finally lysed, and replicates were pooled together for RNA extraction using Qiagen RNeasy Mini kit following manufacturer's instructions. […] (Annealing and extension) (Arya, M., Shergill, I. S., Williamson, M., Gommersall, L., Arya, N., Patel, H. R. (2005) Basic principles of real-time quantitative PCR. Expert Rev. Mol. Diagn.; 5(2):209-19; and Jozefczuk, J. and Adjaye, J. (2011) Quantitative real-time PCR-based analysis of gene expression. Methods Enzymol. 500; 99-109).
The obtained data was analysed using the ΔΔCt method, which provides the target gene expression values as fold changes in the treated sample compared with an untreated basal sample. […]

HEKa cells = assay: Genes related with response to sleep deprivation, RT-qPCR in HEKa (Example 16); assay type: cell-based, Human; conditions: 0.01 mg/ml, 24 hours
Experimental: as §1
RNA (ribonucleic acid) extraction and RT-qPCR (reverse transcription quantitative polymerase chain reaction) were performed. Briefly, HEKa, HDFa or HUVEC cells were seeded in duplicate (n=2) in 6-well plates at a density of 4×10^5 cells/well (2×10^5 cells/well for HUVEC cells) and maintained at standard culture conditions (106 Medium supplemented with 1% (v/v) LSGS for HDFa cells; Medium Epilife supplemented with 1% (v/v) EDGS and 1% (v/v) penicillin/streptomycin for HEKa cells; Endothelial Cell Growth Medium for HUVEC cells; 37° C., 95% room humidity, 5% CO2) for 24 hours.
Then, cells were treated with peptide Ac-SEQ ID NO: 1-NH2 at the concentration of 0.01 mg/mL for 24 hours. Untreated cells were used as basal or negative control.
Cells were finally lysed, and replicates were pooled together for RNA extraction using Qiagen RNeasy Mini kit following manufacturer's instructions. Purified RNAs were used to generate the corresponding cDNAs (complementary deoxyribonucleic acids) by reverse transcription using a commercial kit High capacity cDNA reverse transcription kit (Applied Biosystems) which served as templates for amplification. RT-qPCR was performed with the panel of appropriate TaqMan assay probes for genes shown in table 10 (plus GAPDH—Glyceraldehyde 3-phosphate dehydrogenase—that was used as housekeeping gene) and 2×gene expression Master Mix using StepOne plus Real-Time PCR instrument. Amplification included 40 cycles of: 15 seconds at 95° C. (denaturation) and 1 minute at 60° C. (Annealing and extension) (Arya, M., Shergill, I. S., Williamson, M., Gommersall, L., Arya, N., Patel, H. R. (2005) Basic principles of real-time quantitative PCR. Expert Rev. Mol. Diagn.; 5(2):209-19; and Jozefczuk, J. and Adjaye, J. (2011) Quantitative real-time PCR-based analysis of gene expression. Methods Enzymol. 500; 99-109).
The obtained data was analysed using the ΔΔCt method, which provides the target gene expression values as fold changes in the treated sample compared with an untreated basal sample. Both samples were normalized with the relative expression of a housekeeping gene GAPDH (Glyceraldehyde 3-phosphate dehydrogenase).

**Q.** Which results are given for “Ac-Arg-Arg-Gln-Met-Arg-Glu-NH2 (Ac-RRQMRE-NH2) [Ac-SEQ ID NO: 1-NH2]”?
**A.** protein glycation [1]: able to protect from protein glycation; tyrosinase activity [2]: inhibited tyrosinase in all the concentrations tested; increase in fibrillin 1 staining when compared with the MG-exposed untreated control (human skin explants): 86%; IL33 expression, fold change treated cells with regard to basal control (IL33): −1.22 fold change; CXCL8 Fold change between treated cells and basal control (HEKa cells): −1.33 Fold change; MTNR1A Fold change between treated cells and basal control (HEKa cells): 2.11 Fold change; SIGIRR Fold change between treated cells and basal control (HEKa cells): 1.27 Fold change; SLC2A1 Fold change between treated cells and basal control (HEKa cells): −1.21 Fold change
